“And” between values parts separate entries of the source, which are not always exact repeats. Equal values may be shown once. Inconclusive results and toxic doses are left out. No stated cut-off is given here; in the data, active means T/C of 150% or more; inactive means T/C below 125%.
Test system: L1210 leukemia ip in BDF1 mice, survival T/C
Assay: NCI In Vivo Anticancer Drug Screen. Data for tumor model L1210 Leukemia (intraperitoneal) in B6D2F1 (BDF1) mice
Conditions: endpoint: mean survival time, higher = longer survival
Outline: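 Read-out is survival time, reported as the treated-group measurement over the vehicle-control measurement.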

[1] = dose: 100.0 mg/kg/injection, schedule: Q04DX002 (ip), vehicle: saline with Tween-80
[2] = dose: 200.0 mg/kg/injection, schedule: Q04DX002 (ip), vehicle: saline with Tween-80
[3] = dose: 400.0 mg/kg/injection, schedule: Q04DX002 (ip), vehicle: saline with Tween-80
[4] = dose: 50.0 mg/kg/injection, schedule: Q01DX009 (ip), vehicle: saline
[5] = dose: 100.0 mg/kg/injection, schedule: Q01DX009 (ip), vehicle: saline
[6] = dose: 100.0 mg/kg/injection, schedule: Q04DX003 (ip), vehicle: saline
[7] = dose: 200.0 mg/kg/injection, schedule: Q04DX003 (ip), vehicle: saline
[8] = dose: 75.0 mg/kg/injection, schedule: Q01DX001 (ip), vehicle: saline
[9] = dose: 150.0 mg/kg/injection, schedule: Q01DX001 (ip), vehicle: saline
[10] = dose: 12.5 mg/kg/injection, schedule: Q01DX009 (ip), vehicle: Klucel (hydroxypropylcellulose) (HPC)
[11] = dose: 25.0 mg/kg/injection, schedule: Q01DX009 (ip), vehicle: Klucel (hydroxypropylcellulose) (HPC)
[12] = dose: 50.0 mg/kg/injection, schedule: Q01DX009 (ip), vehicle: Klucel (hydroxypropylcellulose) (HPC)
[13] = dose: 100.0 mg/kg/injection, schedule: Q01DX001 (ip), vehicle: saline with Tween-80
[14] = dose: 100.0 mg/kg/injection, schedule: Q04DX003 (ip), vehicle: Klucel (hydroxypropylcellulose) (HPC)
[15] = dose: 200.0 mg/kg/injection, schedule: Q01DX001 (ip), vehicle: saline with Tween-80
[16] = dose: 200.0 mg/kg/injection, schedule: Q04DX003 (ip), vehicle: Klucel (hydroxypropylcellulose) (HPC)
[17] = dose: 400.0 mg/kg/injection, schedule: Q01DX001 (ip), vehicle: saline with Tween-80
[18] = dose: 400.0 mg/kg/injection, schedule: Q04DX003 (ip), vehicle: Klucel (hydroxypropylcellulose) (HPC)
[19] = dose: 100.0 mg/kg/injection, schedule: Q04DX002 (ip), vehicle: Klucel (hydroxypropylcellulose) (HPC)
[20] = dose: 200.0 mg/kg/injection, schedule: Q04DX002 (ip), vehicle: Klucel (hydroxypropylcellulose) (HPC)
[21] = dose: 100.0 mg/kg/injection, schedule: Q01DX009 (ip), vehicle: Klucel (hydroxypropylcellulose) (HPC)
[22] = dose: 200.0 mg/kg/injection, schedule: Q01DX009 (ip), vehicle: Klucel (hydroxypropylcellulose) (HPC)
[23] = dose: 400.0 mg/kg/injection, schedule: Q01DX009 (ip), vehicle: Klucel (hydroxypropylcellulose) (HPC)
[24] = dose: 100.0 mg/kg/injection, schedule: Q01DX009 (ip), vehicle: saline with Tween-80
[25] = dose: 100.0 mg/kg/injection, schedule: Q04DX003 (ip), vehicle: saline with Tween-80
[26] = dose: 200.0 mg/kg/injection, schedule: Q01DX009 (ip), vehicle: saline with Tween-80
[27] = dose: 200.0 mg/kg/injection, schedule: Q04DX003 (ip), vehicle: saline with Tween-80
[28] = dose: 400.0 mg/kg/injection, schedule: Q01DX009 (ip), vehicle: saline with Tween-80
[29] = dose: 400.0 mg/kg/injection, schedule: Q04DX003 (ip), vehicle: saline with Tween-80

Measured: T/C

CCOC(=O)c1ccc(Nc2nnc(-c3ccc(OC)cc3OC)s2)cc1
inactive: [1] 104 % of control | [2] 104 % of control | [3] 101 % of control

O=c1[nH]cnc2ccnn12
inactive: [4] 104 % of control | [5] 107 % of control | [6] 97 % of control | [7] 92 % of control

CCOC(=O)C1(Cl)OC(Cl)(Cl)C(Cl)C1Cl (stereo not drawn)
inactive: dose: 10.0 mg/kg/injection, schedule: Q01DX001 (ip), vehicle: saline 92 % of control | dose: 20.0 mg/kg/injection, schedule: Q01DX001 (ip), vehicle: saline 90 % of control | dose: 40.0 mg/kg/injection, schedule: Q01DX001 (ip), vehicle: saline 103 % of control | dose: 80.0 mg/kg/injection, schedule: Q01DX001 (ip), vehicle: saline 90 % of control

COC(=O)c1ccc2c(ccc[n+]2C)c1
inactive: dose: 37.5 mg/kg/injection, schedule: Q04DX003 (ip), vehicle: saline with Tween-80 96 % of control | [8] 97 % of control | dose: 75.0 mg/kg/injection, schedule: Q04DX003 (ip), vehicle: saline with Tween-80 96 % of control | [9] 90 % of control | dose: 150.0 mg/kg/injection, schedule: Q04DX003 (ip), vehicle: saline with Tween-80 89 % of control

CC1(C)N=C(N)N=C(N)N1c1ccccc1I
inactive: [10] 100 % of control | [11] 110 % of control | [12] 97 % of control

CCNCCn1cccc1
inactive: [4] 97 % of control | [5] 100 % of control | [6] 97 % of control | dose: 200.0 mg/kg/injection, schedule: Q01DX009 (ip), vehicle: saline 97 % of control | [7] 100 % of control

c1ccc(-c2cn3ccccc3n2)cc1
inactive: [13] 94 % of control | [14] 96 % of control | [15] 92 % of control | [16] 94 % of control | [17] 94 % of control | [18] 98 % of control

CCCCCCCC(=O)N1CCCN(C(=O)CCCCCCC)C1
inactive: dose: 30.0 mg/kg/injection, schedule: Q01DX001 (ip), vehicle: saline 94 % of control | dose: 100.0 mg/kg/injection, schedule: Q01DX001 (ip), vehicle: saline 100 % of control

CCOc1ccc2nc(C)cc(C)c2c1
inactive: [19] 98 % of control | [20] 112 % of control

CSc1ccc(OC(=O)NC2CCCCC2)cc1
inactive: [21] 98 % of control | [14] 98 % of control | [22] 101 % of control | [16] 101 % of control | [23] 116 % of control | [18] 101 % of control

Cc1ccc(C)c(NC(=O)Nc2nccs2)c1
inactive: [13] 96 % of control | [24] 96 % of control and 97 % of control | [1] 96 % of control and 90 % of control | [25] 95 % of control | [15] 104 % of control | [26] 92 % of control and 93 % of control | [2] 93 % of control and 97 % of control | [27] 86 % of control | [17] 96 % of control | [28] 94 % of control and 96 % of control | [3] 100 % of control and 110 % of control | [29] 88 % of control

C=C1N(S(=O)(=O)c2ccc(C)cc2)C(=O)OC12CCCCC2
inactive: [24] 95 % of control | [26] 103 % of control | [28] 105 % of control

CCCCCCCCCC(=O)N/N=C/c1cccc([N+](=O)[O-])c1
inactive: [24] 97 % of control | [26] 91 % of control | [28] 100 % of control

O=C(NCCCl)N(c1ccccc1)c1cccc(C(F)(F)F)c1
inactive: dose: 100.0 mg/kg/injection, schedule: Q01DX005 (ip), vehicle: Klucel (hydroxypropylcellulose) (HPC) 102 % of control | [21] 98 % of control | [19] 114 % of control | dose: 200.0 mg/kg/injection, schedule: Q01DX005 (ip), vehicle: Klucel (hydroxypropylcellulose) (HPC) 91 % of control | [22] 98 % of control | [20] 96 % of control | dose: 400.0 mg/kg/injection, schedule: Q01DX005 (ip), vehicle: Klucel (hydroxypropylcellulose) (HPC) 94 % of control | [23] 98 % of control | dose: 400.0 mg/kg/injection, schedule: Q04DX002 (ip), vehicle: Klucel (hydroxypropylcellulose) (HPC) 104 % of control

CC(=O)Nc1ccnc(=O)[nH]1
inactive: [8] 106 % of control | [9] 95 % of control

C=C(Br)CNC(=O)Nc1c2ccccc2nc2ccccc12
inactive: [10] 86 % of control | [11] 88 % of control | [12] 89 % of control | [21] 92 % of control | dose: 150.0 mg/kg/injection, schedule: Q01DX009 (ip), vehicle: Klucel (hydroxypropylcellulose) (HPC) 89 % of control | dose: 300.0 mg/kg/injection, schedule: Q01DX009 (ip), vehicle: Klucel (hydroxypropylcellulose) (HPC) 91 % of control

CS/C(N)=N\C(=O)N(C)C
inactive: [25] 97 % of control | [27] 98 % of control | [29] 101 % of control

C/C(=C(/CCO)SCCC(=O)c1ccc(Cl)cc1)N(C=O)Cc1cnc(C)nc1N
inactive: [6] 97 % of control | [7] 93 % of control | dose: 400.0 mg/kg/injection, schedule: Q04DX003 (ip), vehicle: saline 97 % of control

Oc1c(Cl)cc(Cl)cc1/C=N\Nc1ccccn1
inactive: dose: 100.0 mg/kg/injection, schedule: Q01DX001 (ip), vehicle: Klucel (hydroxypropylcellulose) (HPC) 92 % of control | dose: 200.0 mg/kg/injection, schedule: Q01DX001 (ip), vehicle: Klucel (hydroxypropylcellulose) (HPC) 95 % of control | dose: 400.0 mg/kg/injection, schedule: Q01DX001 (ip), vehicle: Klucel (hydroxypropylcellulose) (HPC) 95 % of control

CCOP(=O)(OCC)OC(=C(Cl)Cl)C(Cl)(Cl)Cl
inactive: [1] 115 % of control | [2] 102 % of control

CCCC(C)C(C(=O)O)c1ccccc1 (stereo not drawn)
inactive: [24] 102 % of control | [25] 117 % of control | [26] 104 % of control | [27] 100 % of control | [28] 100 % of control | [29] 99 % of control

O=C(O)CCCC(=O)NC1CC2c3ccccc3C1c1ccccc12 (stereo not drawn)
inactive: dose: 100.0 mg/kg/injection, schedule: Q01DX009 (ip), vehicle: saline sonified 101 % of control | [14] 94 % of control | dose: 200.0 mg/kg/injection, schedule: Q01DX009 (ip), vehicle: saline sonified 100 % of control | [16] 96 % of control | dose: 400.0 mg/kg/injection, schedule: Q01DX009 (ip), vehicle: saline sonified 100 % of control | [18] 91 % of control

Source: PubChem BioAssay AID248 (DTP/NCI, 2004)
